Key:
[1] = system: Brassica rapa subsp. oleifera; experiment: Growth inhibition of Brassica rapa subsp. oleifera assessed as chlorophyll b level at 3 x 10^-4 M after 7 days; type: functional; design: scale not given: the % may be the effect or the level left
[2] = system: Brassica rapa subsp. oleifera; experiment: Growth inhibition of Brassica rapa subsp. oleifera assessed as chlorophyll b level at 1 x 10^-4 M after 7 days; type: functional; design: scale not given: the % may be the effect or the level left
[3] = system: Brassica rapa subsp. oleifera; experiment: Growth inhibition of Brassica rapa subsp. oleifera assessed as chlorophyll a level at 3 x 10^-5 M after 7 days; type: functional; design: scale not given: the % may be the effect or the level left
[4] = system: Brassica rapa subsp. oleifera; experiment: Growth inhibition of Brassica rapa subsp. oleifera assessed as chlorophyll a level at 5 x 10^-5 M after 7 days; type: functional; design: scale not given: the % may be the effect or the level left
[5] = Toxicity in ip dosed Mus musculus ddY (mouse) assessed as mortality after 1 to 7 days; type: organism-based; settings: in vivo
[6] = system: Brassica rapa subsp. oleifera; experiment: Growth inhibition of Brassica rapa subsp. oleifera assessed as total chlorophyll level at 5 x 10^-5 M after 7 days; type: functional; design: scale not given: the % may be the effect or the level left
[7] = system: Brassica rapa subsp. oleifera; experiment: Growth inhibition of Brassica rapa subsp. oleifera assessed as total chlorophyll level at 3 x 10^-5 M after 7 days; type: functional; design: scale not given: the % may be the effect or the level left
[8] = system: Brassica rapa subsp. oleifera; experiment: Growth inhibition of Brassica rapa subsp. oleifera assessed as total chlorophyll level at 1 x 10^-4 M after 7 days; type: functional; design: scale not given: the % may be the effect or the level left
[9] = system: Brassica rapa subsp. oleifera; experiment: Growth inhibition of Brassica rapa subsp. oleifera assessed as total chlorophyll level at 3 x 10^-4 M after 7 days; type: functional; design: scale not given: the % may be the effect or the level left
[10] = system: Brassica rapa subsp. oleifera; experiment: Growth inhibition of Brassica rapa subsp. oleifera assessed as root growth at 3 x 10^-5 M after 7 days; type: functional
[11] = system: Brassica rapa subsp. oleifera; experiment: Growth inhibition of Brassica rapa subsp. oleifera assessed as root growth at 5 x 10^-5 M after 7 days; type: functional
[12] = system: Brassica rapa subsp. oleifera; experiment: Growth inhibition of Brassica rapa subsp. oleifera assessed as root growth at 1 x 10^-4 M after 7 days; type: functional
[13] = system: Brassica rapa subsp. oleifera; experiment: Growth inhibition of Brassica rapa subsp. oleifera assessed as root growth at 3 x 10^-4 M after 7 days; type: functional
[14] = system: Brassica rapa subsp. oleifera; experiment: Growth inhibition of Brassica rapa subsp. oleifera assessed as chlorophyll b level at 3 x 10^-5 M after 7 days; type: functional; design: scale not given: the % may be the effect or the level left
[15] = system: Brassica rapa subsp. oleifera; experiment: Growth inhibition of Brassica rapa subsp. oleifera assessed as chlorophyll b level at 5 x 10^-5 M after 7 days; type: functional; design: scale not given: the % may be the effect or the level left
[16] = system: Brassica rapa subsp. oleifera; experiment: Growth inhibition of Brassica rapa subsp. oleifera assessed as chlorophyll a level at 1 x 10^-4 M after 7 days; type: functional; design: scale not given: the % may be the effect or the level left
[17] = system: Brassica rapa subsp. oleifera; experiment: Growth inhibition of Brassica rapa subsp. oleifera assessed as chlorophyll a level at 3 x 10^-4 M after 7 days; type: functional; design: scale not given: the % may be the effect or the level left

| SMILES | Activity [1] | Activity [2] | Activity [3] | Activity [4] | LD50 [5] | Activity [6] | Activity [7] | Activity [8] | Activity [9] | Root length [10] | Root length [11] | Activity [12] | Activity [13] | Activity [14] | Activity [15] | Activity [16] | Activity [17] |
| --- | --- | --- | --- | --- | --- | --- | --- | --- | --- | --- | --- | --- | --- | --- | --- | --- | --- |
| CC(=O)NN1C(=O)CSC1=S [N-ACETYLAMINORHODANINE] | 4.23% | 5.41% | 13.68% | 11.5% | > 1000 mg/kg | 17.47% | 20.31% | 16.24% | 13.58% | 47 mm | 46.5 mm | 47.4 mm | 39.3 mm | 6.65% | 5.99% | 10.84% | 9.35% |
| O=C(NN1C(=O)CSC1=S)c1ccccc1 [N-BENZOYLAMINORHODANINE] | 3.1% | 6.15% | 14.44% | 13.43% | > 1000 mg/kg | 19.54% | 21.24% | 17.6% | 9.62% | 79.6 mm | 73.3 mm | 33.8 mm | 19.2 mm | 6.82% | 6.12% | 11.46% | 6.53% |
